According to ChEMBL document CHEMBL1151369, “Antitumor agents. 39. Bruceantinoside-A and -B, novel antileukemic quassinoid glucosides from Brucea antidysenterica” (1981):

Tests used:
Type in all cases: functional
P388 [1] = assay: In vivo antileukemic activity against mouse P388 cells at 6 mg/kg relative to control
P388 [2] = assay: In vivo antileukemic activity against mouse P388 cells at 0.5 mg/kg relative to control
P388 [3] = assay: In vivo antileukemic activity against mouse P388 cells at 20 mg/kg relative to control
P388 [4] = assay: In vivo antileukemic activity against mouse P388 cells at 10 mg/kg relative to control
P388 [5] = assay: In vivo antileukemic activity against mouse P388 cells at 1 mg/kg relative to control

| Compound | T/C (P388 [1]) | T/C (P388 [2]) | T/C (P388 [3]) | T/C (P388 [4]) | T/C (P388 [5]) |
| --- | --- | --- | --- | --- | --- |
| COC(=O)[C@]12OC[C@@]34[C@H](C[C@H]5[C@H](C)C(=O)C(O[C@@H]6O[C@H](CO)[C@@H](O)[C@H](O)[C@H]6O)=C[C@]5(C)[C@H]3[C@@H](O)[C@@H]1O)OC(=O)[C@H](OC(=O)/C=C(\C)C(C)C)[C@@H]24 [BRUCEANTINOSIDE A] | 118% | 110% | 172% | 152% | 106% |
| COC(=O)[C@]12OC[C@@]34[C@H](C[C@H]5C(C)=C(O[C@@H]6O[C@H](CO)[C@@H](O)[C@H](O)[C@H]6O)C(=O)C[C@]5(C)[C@H]3[C@@H](O)[C@@H]1O)OC(=O)[C@H](OC(=O)/C=C(\C)C(C)C)[C@@H]24 [BRUCEANTINOSIDE B] | – | – | 160% | 132% | – |
